# Target: T1, MMP-9 (Homo sapiens, UniProt P14780)
# T1 construct: All the enzymes are recombinant human active domains from E. coli (Biomol); purchased Biomol; host or cells: E. coli
# Assay: MMP inhibitory assay, fluorescent substrate, MMP-9
# Format: biochemical
# Conditions: recombinant human active domain, substrate 4 uM, room temperature
# Description: (§1) The enzymatic activities of MMPs were assayed according to manufacture protocols (Biomol Reseaerch Laboratory, Inc. E-mail: info@biomol.com). All the enzymes are recombinant human active domains from E. coli (Biomol). The fluorescent substrate has the sequence of (7-methoxycoumarin-4-yl) acetyl-Pro-Leu-Gly-Leu-N-3-(2,4-dinitrophenyl)-L-α,β-diaminopropionyl-Ala-Arg-NH2.AcOH. All the assays were conducted at room temperature with 96 well flat bottom black plate (Nalge Nunc International, Catalog number, 465200). Briefly, certain amount of enzyme in 89 ul of assay buffer (50 mM Hepes, 10 mM CaCl2, 0.05% Brij 35, pH 7.5) was incubated with (7 concentration per set) or without inhibitor (in 1 ul of DMSO, or 1 ul DMSO only) for 20 min. Then the enzymatic reaction was initiated by the addition of the substrate (40 uM in 10 ul of assay buffer and the final concentration of the substrate is 4 uM). The activity was determined by measuring the fluorescence at Ex/Em=328 nm/393 nm and it was linear within 2 hrs. The fluorescence was read at 0 and 20 or 40 min. The reading at 0 time would be considered as the background and subtracted from the final reading. The IC50 was obtained by plotting the fluorescences versus the concentrations of the inhibitors of each assay with Prism software. […] Mechanism studies reveal that the inhibitors are competitive. For competitive inhibitor: Ki=IC50/(1+[S]/Km)
# T1 sequence (P14780 107-444 limits assumed): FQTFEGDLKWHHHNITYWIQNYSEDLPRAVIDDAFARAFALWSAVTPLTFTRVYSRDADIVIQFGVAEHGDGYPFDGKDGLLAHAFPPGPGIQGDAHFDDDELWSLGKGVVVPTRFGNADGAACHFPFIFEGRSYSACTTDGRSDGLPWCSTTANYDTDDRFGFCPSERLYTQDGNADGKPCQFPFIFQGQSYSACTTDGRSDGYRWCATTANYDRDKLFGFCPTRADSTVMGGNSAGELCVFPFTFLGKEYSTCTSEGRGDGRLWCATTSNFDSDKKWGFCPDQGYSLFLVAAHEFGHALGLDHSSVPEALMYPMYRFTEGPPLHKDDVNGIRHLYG
row,IC50 [nM],Compound
1,30400,"COc1ccccc1COc1ccc(Sc2ccoc2C2NC(=O)NC2=O)cc1 (stereo not shown) [IVf, 5-{3-[4-(2-Methoxybenzyloxy)phenylthio]fur-2-yl}imidazolidine-2,4-dione]"
2,472,"Cc1ccc(COc2ccc(Sc3ccoc3C3NC(=O)NC3=O)cc2)cc1 (stereo not shown) [IVk, 5-{3-[4-(4-Methylbenzyloxy)phenylthio]fur-2-yl}imidazolidine-2,4-dione]"
3,255,"O=C1NC(=O)C(c2occc2Sc2ccc(OCc3ccc(Cl)cc3)cc2)N1 (stereo not shown) [IVh, 5-{3-[4-(4-Chlorobenzyloxy)phenylthio]fur-2-yl}imidazolidine-2,4-dione]"

# Target: T2, MMP-13 (Homo sapiens, UniProt P45452)
# T2 construct: All the enzymes are recombinant human active domains from E. coli (Biomol); purchased Biomol; host or cells: E. coli
# Assay: MMP inhibitory assay, fluorescent substrate, MMP-13
# Format: biochemical
# Conditions: recombinant human active domain, substrate 4 uM, room temperature
# Description: as §1
row,IC50 [nM],Compound
1,11600,"COc1ccccc1COc1ccc(Sc2ccoc2C2NC(=O)NC2=O)cc1 (stereo not shown) [IVf, 5-{3-[4-(2-Methoxybenzyloxy)phenylthio]fur-2-yl}imidazolidine-2,4-dione]"
2,643,"Cc1ccc(COc2ccc(Sc3ccoc3C3NC(=O)NC3=O)cc2)cc1 (stereo not shown) [IVk, 5-{3-[4-(4-Methylbenzyloxy)phenylthio]fur-2-yl}imidazolidine-2,4-dione]"
3,329,"O=C1NC(=O)C(c2occc2Sc2ccc(OCc3ccc(Cl)cc3)cc2)N1 (stereo not shown) [IVh, 5-{3-[4-(4-Chlorobenzyloxy)phenylthio]fur-2-yl}imidazolidine-2,4-dione]"

# Target: T3, MMP-2 (Homo sapiens, UniProt P08253)
# T3 construct: All the enzymes are recombinant human active domains from E. coli (Biomol); purchased Biomol; host or cells: E. coli
# T3 sequence (P08253 110-446 limits assumed): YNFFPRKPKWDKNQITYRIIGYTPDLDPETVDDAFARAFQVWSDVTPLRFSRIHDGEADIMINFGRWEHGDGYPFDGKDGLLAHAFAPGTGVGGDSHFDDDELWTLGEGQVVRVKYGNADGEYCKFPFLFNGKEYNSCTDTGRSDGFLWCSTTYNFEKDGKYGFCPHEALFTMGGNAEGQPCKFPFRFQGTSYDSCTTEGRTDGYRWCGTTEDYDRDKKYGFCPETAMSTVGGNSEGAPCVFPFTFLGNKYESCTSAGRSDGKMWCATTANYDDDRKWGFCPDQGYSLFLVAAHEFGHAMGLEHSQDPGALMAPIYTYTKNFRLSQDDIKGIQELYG
# Assay: MMP inhibitory assay, fluorescent substrate, MMP-2
# Format: biochemical
# Conditions: recombinant human active domain, substrate 4 uM, room temperature
# Description: as §1
row,IC50 [nM],Compound
1,233000,"COc1ccccc1COc1ccc(Sc2ccoc2C2NC(=O)NC2=O)cc1 (stereo not shown) [IVf, 5-{3-[4-(2-Methoxybenzyloxy)phenylthio]fur-2-yl}imidazolidine-2,4-dione]"
2,612,"Cc1ccc(COc2ccc(Sc3ccoc3C3NC(=O)NC3=O)cc2)cc1 (stereo not shown) [IVk, 5-{3-[4-(4-Methylbenzyloxy)phenylthio]fur-2-yl}imidazolidine-2,4-dione]"
3,235,"O=C1NC(=O)C(c2occc2Sc2ccc(OCc3ccc(Cl)cc3)cc2)N1 (stereo not shown) [IVh, 5-{3-[4-(4-Chlorobenzyloxy)phenylthio]fur-2-yl}imidazolidine-2,4-dione]"

# Target: T4, MMP-12 (Homo sapiens, UniProt P39900)
# T4 construct: All the enzymes are recombinant human active domains from E. coli (Biomol); purchased Biomol; host or cells: E. coli
# T4 sequence (P39900 106-263 limits assumed): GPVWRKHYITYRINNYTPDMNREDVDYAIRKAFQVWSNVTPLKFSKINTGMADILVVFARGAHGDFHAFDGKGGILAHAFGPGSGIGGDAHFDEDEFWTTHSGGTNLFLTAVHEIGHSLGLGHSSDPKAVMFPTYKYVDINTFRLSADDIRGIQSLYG
# Assay: MMP inhibitory assay, fluorescent substrate, MMP-12
# Format: biochemical
# Conditions: recombinant human active domain, substrate 4 uM, room temperature
# Description: as §1
# In the assay conditions, [S](4 uM) is smaller than Km (20 uM for MMP-12). So Ki equal to IC50/1.2, which is little smaller than IC50, or roughly equal to IC50.
row,IC50 [nM],Compound
1,202,"COc1ccccc1COc1ccc(Sc2ccoc2C2NC(=O)NC2=O)cc1 (stereo not shown) [IVf, 5-{3-[4-(2-Methoxybenzyloxy)phenylthio]fur-2-yl}imidazolidine-2,4-dione]"
2,15,"Cc1ccc(COc2ccc(Sc3ccoc3C3NC(=O)NC3=O)cc2)cc1 (stereo not shown) [IVk, 5-{3-[4-(4-Methylbenzyloxy)phenylthio]fur-2-yl}imidazolidine-2,4-dione]"
3,7,"O=C1NC(=O)C(c2occc2Sc2ccc(OCc3ccc(Cl)cc3)cc2)N1 (stereo not shown) [IVh, 5-{3-[4-(4-Chlorobenzyloxy)phenylthio]fur-2-yl}imidazolidine-2,4-dione]"

# Target: T5, MMP-7 (Homo sapiens, UniProt P09237)
# T5 construct: All the enzymes are recombinant human active domains from E. coli (Biomol); purchased Biomol; host or cells: E. coli
# T5 sequence (P09237 95-267): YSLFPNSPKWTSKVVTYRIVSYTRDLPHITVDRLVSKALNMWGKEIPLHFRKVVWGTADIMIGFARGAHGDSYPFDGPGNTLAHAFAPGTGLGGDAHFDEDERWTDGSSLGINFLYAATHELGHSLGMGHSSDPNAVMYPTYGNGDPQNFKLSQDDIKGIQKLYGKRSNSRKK
# Assay: MMP inhibitory assay, fluorescent substrate, MMP-7
# Format: biochemical
# Conditions: recombinant human active domain, substrate 4 uM, room temperature
# Description: as §1
row,IC50 [nM],Compound
1,30900,"Cc1ccc(COc2ccc(Sc3ccoc3C3NC(=O)NC3=O)cc2)cc1 (stereo not shown) [IVk, 5-{3-[4-(4-Methylbenzyloxy)phenylthio]fur-2-yl}imidazolidine-2,4-dione]"
2,7450,"O=C1NC(=O)C(c2occc2Sc2ccc(OCc3ccc(Cl)cc3)cc2)N1 (stereo not shown) [IVh, 5-{3-[4-(4-Chlorobenzyloxy)phenylthio]fur-2-yl}imidazolidine-2,4-dione]"

# Target: T6, MMP-1 (Homo sapiens, UniProt P03956)
# T6 construct: All the enzymes are recombinant human active domains from E. coli (Biomol); purchased Biomol; host or cells: E. coli
# T6 sequence (P03956 100-269 limits assumed): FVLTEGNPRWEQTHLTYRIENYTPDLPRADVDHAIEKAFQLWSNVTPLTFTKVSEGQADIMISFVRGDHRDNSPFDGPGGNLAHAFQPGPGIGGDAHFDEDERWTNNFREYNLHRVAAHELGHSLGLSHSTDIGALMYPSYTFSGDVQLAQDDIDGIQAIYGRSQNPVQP
# Assay: MMP inhibitory assay, fluorescent substrate, MMP-1
# Format: biochemical
# Conditions: recombinant human active domain, substrate 4 uM, room temperature
# Description: as §1
row,IC50 [nM],Compound
1,> 40000,"COc1ccccc1COc1ccc(Sc2ccoc2C2NC(=O)NC2=O)cc1 (stereo not shown) [IVf, 5-{3-[4-(2-Methoxybenzyloxy)phenylthio]fur-2-yl}imidazolidine-2,4-dione]"
2,> 40000,"Cc1ccc(COc2ccc(Sc3ccoc3C3NC(=O)NC3=O)cc2)cc1 (stereo not shown) [IVk, 5-{3-[4-(4-Methylbenzyloxy)phenylthio]fur-2-yl}imidazolidine-2,4-dione]"
3,> 40000,"O=C1NC(=O)C(c2occc2Sc2ccc(OCc3ccc(Cl)cc3)cc2)N1 (stereo not shown) [IVh, 5-{3-[4-(4-Chlorobenzyloxy)phenylthio]fur-2-yl}imidazolidine-2,4-dione]"

# Target: T7, MMP-3 (Homo sapiens, UniProt P08254)
# T7 construct: All the enzymes are recombinant human active domains from E. coli (Biomol); purchased Biomol; host or cells: E. coli
# T7 sequence (P08254 100-272 limits assumed): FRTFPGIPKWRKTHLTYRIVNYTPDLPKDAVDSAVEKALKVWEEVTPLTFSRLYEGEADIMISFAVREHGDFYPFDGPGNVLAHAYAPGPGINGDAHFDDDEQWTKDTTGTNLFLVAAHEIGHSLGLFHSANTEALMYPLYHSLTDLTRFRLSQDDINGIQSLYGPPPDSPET
# Assay: MMP inhibitory assay, fluorescent substrate, MMP-3
# Format: biochemical
# Conditions: recombinant human active domain, substrate 4 uM, room temperature
# Description: as §1
row,IC50 [nM],Compound
1,586,"Cc1ccc(COc2ccc(Sc3ccoc3C3NC(=O)NC3=O)cc2)cc1 (stereo not shown) [IVk, 5-{3-[4-(4-Methylbenzyloxy)phenylthio]fur-2-yl}imidazolidine-2,4-dione]"
2,157,"O=C1NC(=O)C(c2occc2Sc2ccc(OCc3ccc(Cl)cc3)cc2)N1 (stereo not shown) [IVh, 5-{3-[4-(4-Chlorobenzyloxy)phenylthio]fur-2-yl}imidazolidine-2,4-dione]"

# — patent US7179831B2, “5-[3-(4-benzyloxyphenylthio)-fur-2-yl]-imidazolidin-2, 4-dione and analogues as inhibitors of macrophage elastase” (Quest Pharmaceutical Services, priority 2004, dated 2007)
